Data taken from US20260062426A1, “CYCLIN DEPENDENT KINASE DEGRADERS AND METHODS OF USE THEREOF” (Differentiated Therapeutics Inc, priority 2023, published 2026).

Legend:
Format in all cases: cell-based
CDK2 = target: T1, CDK2 (Homo sapiens, UniProt P24941); assay: CDK2 HIBIT PQ (protein quantification), degradation; conditions: for CDK2 HIBIT PQ Max (%): Max = Maximum; for DC50: PQ = Protein Quantification
T1 construct: host or cells: HEK293
Outline: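 HEK293 cells bearing HiBiT-tagged CDK2 were cultured in DMEM containing 10% FBS, plated in 384-well plates at 1.6×10^5 cells/well in 50 uL, and kept overnight at 37° C and 5% CO2. Following 6 hours of compound exposure, each well received 20 μL of HiBiT reagent (Nano-Glo HiBiT lytic buffer, lytic substrate, LgBiT protein), and plates were shaken for 20 minutes at room temperature and then read on an EnVision, with 0.1% DMSO as the high control and medium only as the low control. DC50 and maximal degradation were calculated from these readings.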

CDK9 = target: T2, CDK9 (Homo sapiens, UniProt P50750); assay: CDK9 HIBIT PQ (protein quantification), degradation; conditions: for Dmax: Max = Maximum; for DC50: PQ = Protein Quantification
T2 construct: host or cells: HEK293
Outline: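 HEK293 cells carrying HiBiT-tagged CDK9 were grown in DMEM with 10% FBS and seeded in 384-well plates at 1.6×10^5 cells/well in 50 uL, then incubated overnight at 37° C and 5% CO2. After compound treatment, CDK9 protein was measured with a HiBiT assay. High control was 0.1% DMSO-treated cells and low control was culture medium only. Maximal degradation, Dmax and DC50 were derived from these readings.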

CCNE1 = target: T3, CCNE1 (Homo sapiens, UniProt P24864+P24941); assay: CCNE1 HIBIT PQ (protein quantification), degradation; conditions: for CCNE1 HIBIT PQ Max (%): Max = Maximum; for DC50: PQ = Protein Quantification
T3 construct: host or cells: HEK293
Outline: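 HEK293 cells with HiBiT-tagged CCNE1 were cultured in EMEM containing 10% FBS, plated at 1.6×10⁵ cells/well in 50 uL in 384-well plates and left overnight at 37° C with 5% CO₂. After 6 hours of compound exposure, a HiBiT assay measured CCNE1 protein, with 0.1% DMSO-treated cells as the high control and medium alone as the low control. DC50 and maximal degradation came from these readings.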

T2 sequence (P50750 whole entry): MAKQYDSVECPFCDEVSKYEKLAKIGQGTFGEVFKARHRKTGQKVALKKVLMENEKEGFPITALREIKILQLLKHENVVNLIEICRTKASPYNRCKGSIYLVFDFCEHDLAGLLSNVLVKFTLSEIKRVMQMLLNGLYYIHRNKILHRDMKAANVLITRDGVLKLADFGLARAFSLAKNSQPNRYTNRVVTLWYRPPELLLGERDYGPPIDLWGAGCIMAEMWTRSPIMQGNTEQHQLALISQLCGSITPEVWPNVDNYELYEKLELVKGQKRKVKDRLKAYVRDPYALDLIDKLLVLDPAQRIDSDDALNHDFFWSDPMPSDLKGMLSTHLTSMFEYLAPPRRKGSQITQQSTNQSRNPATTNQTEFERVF

Row | SMILES | CDK2 HIBIT PQ Max (%) (CDK2) | DC50 (CDK2) [nM] | Dmax (CDK9) [%] | DC50 (CDK9) [nM] | CCNE1 HIBIT PQ Max (%) (CCNE1) | DC50 (CCNE1) [nM]
1 | CC(C)Oc1c(-c2cn[nH]c2)ncn2nc(N[C@H]3CCN(S(=O)(=O)c4cccc(CN5CCN(c6ccc7c(N8CCC(=O)NC8=O)nn(C)c7c6)CC5C)c4)C[C@H]3C)nc12 (stereo partly drawn) [Compound 51] | 98 | 2.4 | 100 | 20.2 | 92 | 9.29
2 | CC(C)Oc1c(-c2cn[nH]c2)ncn2nc(N[C@H]3CCN(S(=O)(=O)c4cccc(CN5CCN(c6ccc7c(N8CCC(=O)NC8=O)nn(C)c7c6)CC5(C)C)c4)C[C@H]3C)nc12 [Compound 52] | 98 | 2.8 | 93 | 38.7 | 93 | 13.8
3 | CC(C)Oc1c(-c2cn[nH]c2)ncn2nc(Nc3ccc(S(=O)(=O)N(C)CCCN4CCN(c5ccc6c(c5)n(C)c(=O)n6C5CCC(=O)NC5=O)C[C@@H]4C)cc3F)nc12 (stereo partly drawn) [Compound 62] | 91 | 0.1 | 75 | 1.22 | 65 | 0.92
4 | CC(C)Oc1c(-c2cn[nH]c2)ncn2nc(Nc3ccc(S(=O)(=O)N(C)CCCN4CCN(c5ccc6c(c5)n(C)c(=O)n6C5CCC(=O)NC5=O)C[C@H]4C)cc3F)nc12 (stereo partly drawn) [Compound 63] | 92 | < 0.152 | 85 | 2.07 | 66 | 1.24
5 | CC(C)Oc1c(-c2cn[nH]c2)ncn2nc(Nc3ccc(S(=O)(=O)N(C)CCCN4CCN(c5ccc6c(c5)n(C)c(=O)n6C5CCC(=O)NC5=O)C[C@@H]4C(C)C)cc3F)nc12 (stereo partly drawn) [Compound 64] | 89 | 0.2 | 74 | 3.38 | 65 | 1.79
6 | CC(C)Oc1c(-c2cn[nH]c2)ncn2nc(Nc3ccc(S(=O)(=O)N(C)CCCN4CCN(c5ccc6c(c5)n(C)c(=O)n6C5CCC(=O)NC5=O)C[C@H]4C(C)C)cc3F)nc12 (stereo partly drawn) [Compound 65] | 85 | 0.2 | 49 |  | 39 | 
7 | CC(C)Oc1c(-c2cn[nH]c2)ncn2nc(Nc3ccc(S(=O)(=O)N(C)CCCN4CCN(c5ccc6c(c5)n(C)c(=O)n6C5CCC(=O)NC5=O)CC4)cc3F)nc12 (stereo not drawn) [Compound 66] | 92 | 0.1 | 69 | 1.87 | 70 | 0.93
8 | CC(C)Oc1c(-c2cn[nH]c2)ncn2nc(Nc3ccc(S(=O)(=O)N(C)CCCN4C5CCC4CN(c4ccc6c(c4)n(C)c(=O)n6C4CCC(=O)NC4=O)C5)cc3F)nc12 (stereo not drawn) [Compound 68] | 90 | 0.1 | 73 | 2.76 | 67 | 1.05
9 | CC(C)Oc1c(-c2cn[nH]c2)ncn2nc(Nc3ccc(S(=O)(=O)N(C)CCCN4CC5CC4CN5c4ccc5c(c4)n(C)c(=O)n5C4CCC(=O)NC4=O)cc3F)nc12 (stereo not drawn) [Compound 69] | 71 | 0.5 | 6 |  | 18 | 
10 | CC(C)Oc1c(-c2cn[nH]c2)ncn2nc(Nc3ccc(S(=O)(=O)N(C)CCCN4C5CC4CN(c4ccc6c(c4)n(C)c(=O)n6C4CCC(=O)NC4=O)C5)cc3F)nc12 (stereo not drawn) [Compound 70] | 61 | 0.3 | 9 |  | 20 | 
11 | CC(C)Oc1c(-c2cn[nH]c2)ncn2nc(Nc3ccc(S(=O)(=O)N4CCC(CN5CCC(c6ccc7c(c6)n(C)c(=O)n7C6CCC(=O)NC6=O)CC5)C4)cc3F)nc12 (stereo not drawn) [Compound 71] | 78 |  | 29 |  | 35 | 
12 | CC(C)Oc1c(-c2cn[nH]c2)ncn2nc(Nc3ccc(S(=O)(=O)N4CCCC(CN5CCC(c6ccc7c(c6)n(C)c(=O)n7C6CCC(=O)NC6=O)CC5)C4)cc3F)nc12 (stereo not drawn) [Compound 72] | 88 |  | 71 | 0.5 | 64 | 0.17
13 | CC(C)Oc1c(-c2cn[nH]c2)ncn2nc(Nc3ccc(S(=O)(=O)c4ccc(CN5CCC(c6ccc7c(c6)n(C)c(=O)n7[C@H]6CCC(=O)NC6=O)CC5)o4)cc3F)nc12 [Compound 73] | 79 | 0.8 | 31 |  | 27 | 
14 | CC(C)Oc1c(-c2cn[nH]c2)ncn2nc(Nc3ccc(S(=O)(=O)N4CC5C4CCN5CC4CCN(c5cccc6c5n(C)c(=O)n6C5CCC(=O)NC5=O)CC4)cc3F)nc12 (stereo not drawn) [Compound 74] | 91 | 0.7 | 88 | 7.04 | 71 | 3.57
15 | CC(C)Oc1c(-c2cn[nH]c2)ncn2nc(Nc3ccc(S(=O)(=O)N4CCC5(CCN(CC6CN(c7cccc8c7n(C)c(=O)n8C7CCC(=O)NC7=O)C6)C5)C4)cc3F)nc12 (stereo not drawn) [Compound 75] | 85 | 4.7 | 55 | 92.5 | 28 | 
16 | CC(C)Oc1c(-c2cn[nH]c2)ncn2nc(Nc3ccc(S(=O)(=O)c4cccc(CC5CC(c6ccc7c(c6)CN(C6CCC(=O)NC6=O)C7=O)C5)c4)cc3F)nc12 (stereo not drawn) [Compound 77, 3-(5-(3-(3-((3-fluoro-4-((8-isopropoxy-7-(1H-pyrazol-4-yl)-[1,2,4]triazolo[1,5-c]pyrimidin-2-yl)amino)phenyl)sulfonyl)benzyl)cyclobutyl)-1-oxoisoindolin-2-yl)piperidine-2,6-dione] | 95 | 12.4 | 37 |  | 82 | 34.4
17 | CC(C)Oc1c(-c2cn[nH]c2)ncn2nc(Nc3ccc(S(=O)(=O)c4cccc(CN5CC(c6ccc7c(N8CCC(=O)NC8=O)nn(C)c7c6)C5)c4)cc3F)nc12 [Compound 78] | 85 | 2 | 12 |  | 36 | 
18 | CC(C)Oc1c(-c2cn[nH]c2)ncn2nc(Nc3ccc(S(=O)(=O)c4cccc(C(C)N5CCN(c6ccc7c(N8CCC(=O)NC8=O)nn(C)c7c6)C6CC65)c4)cc3F)nc12 (stereo not drawn) [Compound 83] | 89 | 7.6 | 23 |  | 28 | 
19 | CC(C)Oc1c(-c2cn[nH]c2)ncn2nc(Nc3ccc(S(=O)(=O)N4CCCC(CN5CCN(c6ccc7c(N8CCC(=O)NC8=O)nn(C)c7c6)C6CC65)C4)cc3F)nc12 (stereo not drawn) [Compound 88] | 61 | 6.5 | 18 |  | 25 | 
20 | CC(C)Oc1c(-c2cn[nH]c2)ncn2nc(Nc3ccc(S(=O)(=O)c4cccc(C[C@H]5C[C@H](c6ccc7c(N8CCC(=O)NC8=O)nn(C)c7c6)C5)c4)cc3F)nc12 [Compound 89, rel-1-(6-((1s,3r)-3-(3-((3-fluoro-4-((8-isopropoxy-7-(1H-pyrazol-4-yl)-[1,2,4]triazolo[1,5-c]pyrimidin-2-yl)amino)phenyl)sulfonyl)benzyl)cyclobutyl)-1-methyl-1H-indazol-3-yl)dihydropyrimidine-2,4(1H,3H)-dione] | 70 | 43.4 | 17 |  | 38 | 
21 | CC(C)Oc1c(-c2cn[nH]c2)ncn2nc(Nc3ccc(S(=O)(=O)c4cccc(C[C@H]5C[C@@H](c6ccc7c(N8CCC(=O)NC8=O)nn(C)c7c6)C5)c4)cc3F)nc12 [Compound 90, rel-1-(6-((1r,3s)-3-(3-((3-fluoro-4-((8-isopropoxy-7-(1H-pyrazol-4-yl)-[1,2,4]triazolo[1,5-c]pyrimidin-2-yl)amino)phenyl)sulfonyl)benzyl)cyclobutyl)-1-methyl-1H-indazol-3-yl)dihydropyrimidine-2,4(1H,3H)-dione] | 91 | 14.3 | 14 |  | 48 | 
22 | CC(C)Oc1c(-c2cn[nH]c2)ncn2nc(Nc3ccc(S(=O)(=O)N4CCCC(CN5CCN(c6ccc7c(N8CCC(=O)NC8=O)nn(C)c7c6)C(C)C5)C4)cc3F)nc12 (stereo not drawn) [Compound 91] | 84 | 3.2 | 67 | 61.5 | 71 | 12.5
23 | CC(C)Oc1c(-c2cn[nH]c2)ncn2nc(Nc3ccc(S(=O)(=O)N4CCCC(CN5CCC(c6ccc7c(N8CCC(=O)NC8=O)nn(C)c7c6)C(C)C5)C4)cc3F)nc12 (stereo not drawn) [Compound 92] | 88 | 1.7 | 77 | 21.7 | 82 | 4.11
24 | CC(C)Oc1c(-c2cn[nH]c2)ncn2nc(Nc3ccc(S(=O)(=O)N4CCCC(CN5CCC(c6ccc7c(N8CCC(=O)NC8=O)nn(C)c7c6)CC5(C)C)C4)cc3F)nc12 (stereo not drawn) [Compound 93, 1-(6-(1-((1-((3-fluoro-4-((8-isopropoxy-7-(1H-pyrazol-4-yl)-[1,2,4]triazolo[1,5-c]pyrimidin-2-yl)amino)phenyl)sulfonyl)piperidin-3-yl)methyl)-2,2-dimethylpiperidin-4-yl)-1-methyl-1H-indazol-3-yl)dihydropyrimidine-2,4(1H,3H)-dione] | 77 | 0.7 | 56 | 5.87 | 56 | 1.22
